Where two headings read alike, the source gives them in different places. Marks after values point to notes of the source that are not given here.
Assays:
[1] = test system: activated partial thromboplastin time (intrinsic coagulation pathway); experiment: Anticoagulant activity, clotting test APTT; set-up: species or system human; conditions: for APTT, % of control: concentration 5×10^–4 g/mL, median (25-75 percentiles)
Procedure: The in vitro experiments were performed using the blood of healthy male donors aged 18-24 years (total 54 donors). The study was approved by the Ethics Committee of Federal State Budgetary Educational Institution of Higher Education at the Bashkir State Medical University of the Ministry of Health of Russian Federation (No.2 dated 17.10.2012). Informed consent was obtained from all participants before blood sampling. The blood was collected from the cubital vein using the system of vacuum blood collection BD Vacutainer® (Becton, Dickinson and Company, USA). A 3.8 % sodium citrate solution in a 9:1 ratio was used as a venous blood stabiliser. The study of the effect on platelet aggregation was performed using the Born method using the aggregometer «AT-02» (SPC Medtech, Russia). The assessment of antiplatelet activity of the studied compounds and reference preparations was started with the final concentration of 2×10^–3 mol/L. Adenosine diphosphate (ADP; 20 μg/mL) and collagen (5 mg/mL) manufactured by Tehnologia-Standart Company, Russia, were used as inducers of aggregation. The study on the anticoagulant activity was performed by standard recognised clotting tests using the optical two-channel automatic analyser of blood coagulation Solar CGL 2110 (CJSC SOLAR, Belarus). The following parameters were studied: activated partial thromboplastin time (APTT), prothrombin time (PT) and fibrinogen concentrations according to the Clauss method. The determination of anticoagulant activity of the studied compounds and reference preparation was performed in a concentration of 5×10^–4 g/mL using the reagents manufactured by Tehnologia-Standart Company (Barnaul, Russia). The results of the study were processed using the statistical package Statistica 10.0 (StatSoft Inc, USA). The Shapiro–Wilk’s test was used to check the normality of actual data distribution. The form of distribution of the data obtained differed from the normal one; therefore, non-parametric methods were used for further analysis. The data were presented as medians and 25 and 75 percentiles. Analysis of variance was conducted using Kruskal–Wallis test. A p value of 0.05 was considered statistically significant.

[2] = test system: Xanthomonas campestris B-610; experiment: Bactericidal activity, agar diffusion, X. campestris; assay type: cell-based; conditions: Xanthomonas campestris, B610, 2 mM/L
Description: (§1) Plant pathogenic bacterial strains Micrococcus luteus B-109, Pectobacterium atrosepticum 1043, Pectobacterium carotovorum subsp. carotovorum MI, Pseudomonas fluorescens EL-2.1, and Xanthomonas campestris B-610 and fungal strain Fusarium oxysporum IBPPM 543 were obtained from the specialized scientific culture collection of IBPPM RAS (WFCC no. 975, WDCM no. 1021) (CM IBPPM). Pathogenic fungus Phytophthora cactorum VKM F-985 provided by the All-Russian Collection of Microorganisms (VKM) and deposited at A.E. Favorsky Irkutsk Institute of Chemistry, SB RAS, was also used as test organism. Bacteria M. luteus, P. carotovorum subsp. carotovorum, P. atrosepticum, and Ps. fluorescens were grown in meat-peptone medium (BP), and X. campestris was grown in the medium with glucose, yeast extract, and calcium carbonate (GYCa). Solid media contained Bacto agar (18 g/L); pH was adjusted to 7.2-7.4. All bacterial cultures were grown at 28°C. The mycelial cultures of F. oxysporum and P. cactorum were grown on a glucose-peptone-yeast (GPY) nutrient medium at 27 °C. For inoculum preparation, both fungal strains were initially grown on the agar GPY in Petri dishes and then transferred into the seed medium by punching out 5 mm of the agar plate culture with a self-designed cutter.
Antibacterial and antifungal activities of the compounds were explored using the agar diffusion method and the technique of a phytopathogen radial growth inhibition. Method of diffusion in agar (measuring the diameter of growth inhibition zones) was used for determining the bactericidal activity. The 6-mm wells were made in ager medium (GYCa for Xanthomonas campestris or BP for other bacteria). Bacterial suspensions were distributed over the agar surface, and the tested compound's solution (150 μl) was added to each well. The width of growth inhibition zones around the wells was determined after incubation for 36-40 h.
(§2) The solutions of tested compounds were prepared with a concentration of 2 mmol/l (stock solution). For comparison, test compounds were also commonly applied disinfecting agents and antibiotics.

[3] = test system: Phytophthora cactorum VKM F-985; experiment: Fungicidal activity, radial growth inhibition, P. cactorum; assay type: cell-based; conditions: for EC50: Phytophthora cactorum, 168 h, day 7, EC50 = 50C/I, read-out: EC50, μg/mL at day 7
Description: as §1
For the fungicidal activity analysis, radial growth (colony diameters) of the fungi on a solid medium in the absence and in the presence of the compounds 3a,c-g solutions at various concentrations were compared. The method consisted of the following: sterile, melted and then cooled to about 60°C GPY agar medium (20.0 ml) was mixed with the precisely measured volumes of the solutions under question, and poured into a sterile Petri dish (90 mm i.d.). After solidification of GPY agar, the media were inoculated by the fungus using 10-day-old cultures of F. oxysporum or P. cactorum. The inoculation was done by transferring a 5-mm (i.d.) GPY-agar block covered with mycelium to the center of the Petri dish followed by incubation in a thermostat at 27°C. The fungicidal effect was scored by the size of mycelium colony on a Petri dish compared to the control without fungicidal admixtures to GPY agar. Each treatment was performed in at least four replicates in two independent experiments. The observation period ended when the control Petri dish was filled with mycelium (usually after 12 days). The inhibition of the phytopathogen colony growth by the compounds 3a,c-g or fludioxonil solutions was calculated as a percentage by which the mycelium radial propagation was decreased compared to the unaffected control, the latter was taken as 100 % of growth (or zero percent of inhibition). The EC50 value was calculated as the compound concentration at which the radial growth of the fungus colony was decreased by 50 % relative to the non-fungicidal control, according to the formula EC50 = 50C/I based on the approach developed e.g., in [34, 35].
as §2

[4] = 150 μl per well, 36-40 h, read-out: width of the inhibition zone
[5] = read-out: Inhibition zone width (mm), not less

CC[N+](CC)(CC)CC(=O)N/N=C1\C(=O)N(Cc2cc(C(C)(C)C)c(O)c(C(C)(C)C)c2)c2ccccc21 [Compound 3a, 2-(2-(1-(3,5-Di-tert-butyl-4-hydroxybenzyl)-2-oxoindolin-3-ylidene)hydrazinyl)-N,N,N-triethyl-2-oxoethanammonium bromide]
APTT, % of control [1]: +5.2 (4.1-7.6) ^*, ^† % of control | zone of inhibition at 2000 µM [2, 4]: 10 mm | zone of inhibition at 2000 µM [2, 5]: ≥ 10 mm | Inhibition value, I (%) ([3]; C 3.01 μg/mL, age of the fungus 3 days): 4% | Inhibition value, I (%) ([3]; C 3.01 μg/mL, age of the fungus 5 days): 9% | Inhibition value, I (%) ([3]; C 3.01 μg/mL, age of the fungus 7 days): 15% | Inhibition value, I (%) ([3]; C 3.01 μg/mL, age of the fungus 9 days): 1% | Inhibition value, I (%) ([3]; C 3.01 μg/mL, age of the fungus 12 days): 0% | Inhibition value, I (%) ([3]; C 6.02 μg/mL, age of the fungus 3 days): 13% | Inhibition value, I (%) ([3]; C 6.02 μg/mL, age of the fungus 5 days): 21% | Inhibition value, I (%) ([3]; C 6.02 μg/mL, age of the fungus 7 days): 22% | Inhibition value, I (%) ([3]; C 6.02 μg/mL, age of the fungus 9 days): 4% | Inhibition value, I (%) ([3]; C 6.02 μg/mL, age of the fungus 12 days): 5% | Inhibition value, I (%) ([3]; C 9.03 μg/mL, age of the fungus 3 days): 17% | Inhibition value, I (%) ([3]; C 9.03 μg/mL, age of the fungus 5 days): 22% | Inhibition value, I (%) ([3]; C 9.03 μg/mL, age of the fungus 7 days): 25% | Inhibition value, I (%) ([3]; C 9.03 μg/mL, age of the fungus 9 days): 4% | Inhibition value, I (%) ([3]; C 9.03 μg/mL, age of the fungus 12 days): 5% | Inhibition value, I (%) ([3]; C 12.04 μg/mL, age of the fungus 3 days): 40% | Inhibition value, I (%) ([3]; C 12.04 μg/mL, age of the fungus 5 days): 47% | Inhibition value, I (%) ([3]; C 12.04 μg/mL, age of the fungus 7 days): 49% | Inhibition value, I (%) ([3]; C 12.04 μg/mL, age of the fungus 9 days): 41% | Inhibition value, I (%) ([3]; C 12.04 μg/mL, age of the fungus 12 days): 26% | EC50 [3]: 10 µg/mL

CCc1cccc2c1N(Cc1cc(C(C)(C)C)c(O)c(C(C)(C)C)c1)C(=O)/C2=N\NC(=O)C[N+](CC)(CC)CC [Compound 3c, 2-(2-(1-(3,5-Di-tert-butyl-4-hydroxybenzyl)-7-ethyl-2-oxoindolin-3-ylidene)hydrazinyl)-N,N,N-triethyl-2-oxoethanammonium bromide]
anticoagulant activity ([1]; APTT, p<0.05): ≥ 10% | APTT, % of control [1]: +11.2 (7.9-13.1) ^*, ^† % of control | zone of inhibition at 2000 µM [2, 4]: 11 mm | zone of inhibition at 2000 µM [2, 5]: ≥ 11 mm | Inhibition value, I (%) ([3]; C 1.26 μg/mL, age of the fungus 3 days): 17% | Inhibition value, I (%) ([3]; C 1.26 μg/mL, age of the fungus 5 days): 28% | Inhibition value, I (%) ([3]; C 1.26 μg/mL, age of the fungus 7 days): 30% | Inhibition value, I (%) ([3]; C 1.26 μg/mL, age of the fungus 9 days): 12% | Inhibition value, I (%) ([3]; C 1.26 μg/mL, age of the fungus 12 days): 3% | Inhibition value, I (%) ([3]; C 3.15 μg/mL, age of the fungus 3 days): 29% | Inhibition value, I (%) ([3]; C 3.15 μg/mL, age of the fungus 5 days): 31% | Inhibition value, I (%) ([3]; C 3.15 μg/mL, age of the fungus 7 days): 38% | Inhibition value, I (%) ([3]; C 3.15 μg/mL, age of the fungus 9 days): 20% | Inhibition value, I (%) ([3]; C 3.15 μg/mL, age of the fungus 12 days): 16% | Inhibition value, I (%) ([3]; C 6.30 μg/mL, age of the fungus 3 days): 33% | Inhibition value, I (%) ([3]; C 6.30 μg/mL, age of the fungus 5 days): 44% | Inhibition value, I (%) ([3]; C 6.30 μg/mL, age of the fungus 7 days): 45% | Inhibition value, I (%) ([3]; C 6.30 μg/mL, age of the fungus 9 days): 28% | Inhibition value, I (%) ([3]; C 6.30 μg/mL, age of the fungus 12 days): 20% | Inhibition value, I (%) ([3]; C 9.45 μg/mL, age of the fungus 3 days): 39% | Inhibition value, I (%) ([3]; C 9.45 μg/mL, age of the fungus 5 days): 45% | Inhibition value, I (%) ([3]; C 9.45 μg/mL, age of the fungus 7 days): 48% | Inhibition value, I (%) ([3]; C 9.45 μg/mL, age of the fungus 9 days): 41% | Inhibition value, I (%) ([3]; C 9.45 μg/mL, age of the fungus 12 days): 36% | Inhibition value, I (%) ([3]; C 12.60 μg/mL, age of the fungus 3 days): 50% | Inhibition value, I (%) ([3]; C 12.60 μg/mL, age of the fungus 5 days): 56% | Inhibition value, I (%) ([3]; C 12.60 μg/mL, age of the fungus 7 days): 61% | Inhibition value, I (%) ([3]; C 12.60 μg/mL, age of the fungus 9 days): 58% | Inhibition value, I (%) ([3]; C 12.60 μg/mL, age of the fungus 12 days): 48% | EC50 [3]: 2.1 µg/mL

From paper PMC8957246, “Synthesis and diverse biological activity profile of triethylammonium isatin-3-hydrazones” (ADMET & DMPK, 2022)
